# Key:
# [1] = test system: human corneal epithelial cells; test: Clonogenic cell survival assay, corneal epithelial cells with PDGF-AB (Example 1); format: cell-based; settings: 10 ng/ml PDGF-AB, 14 days
# Procedure: (§1) Primary isolated human corneal epithelial cells; Normal, Human cells (ATCC® PCS-700-010™) were maintained in culture at 37° C. with 5% CO2 and 95% humidity in serum reduced (5% fetal calf serum) modified promocell media (MPM) supplemented with 4 ng/ml fibronectin (FN), 2 ng/ml human recombinant vascular endothelial growth factor (VEGF) and 4 ng/ml basic fibroblast growth factor (bFGF).
# A clonogenic cell survival assay determines the ability of a cell to proliferate indefinitely. The effects of phenylcapsaicin (2) on clonogenic survival of corneal epithelial cells was investigated by plating the cells with increasing numbers (102 to 5×104) in 25 cm^2 flasks. SU9518, a known inhibitor PDGF that has shown the ability to reduce radiation-induced fibroblast and endothelial cell activation, was used as the positive control. The cells were incubated with 0-10 μM of phenylcapsaicin and SU9518 separately in the presence of 10 ng/ml PDGF-AB. The flasks were returned to the incubator for 14 days, after which they were stained with crystal violet. The colonies were counted, and the surviving
# [2] = test system: human corneal epithelial cells; test: Proliferation assay, VEGF+bFGF-stimulated corneal epithelial proliferation (Example 1); format: cell-based; settings: Corneal epithelial cell, highest dose tested 10 uM, 72 hours, read-out: IC50, VEGF+bFGF-induced proliferation
# Procedure: as §1
# Corneal cells were harvested by trypsinization at 37° C. and neutralized with trypsin-neutralizing solution. A suspension of 50,000 cells in MPM/DMEM was added to 25 ml flasks. The cells were incubated with phenylcapsaicin or SU9518 for 1 hour in cytokine-free medium at standard conditions and incubated for another 72 hours in the presence of final mediums (either with 10 ng/ml PDGF-AB+4 ng/ml FN, or with 2 ng/ml VEGF+4 ng/ml bFGF+4 ng/ml FN). The cells were then dispersed in trypsin, resuspended, and counted in a coulter counter.
# [3] = test system: human bronchial epithelial cells; test: Clonogenic cell survival assay, bronchial epithelial cells with PDGF-AB (Example 2); format: cell-based
# Procedure: (§2) Primary isolated human bronchial epithelial cells (NHBE) (Normal, Human (ATCC® BEAS-2B™)) were cultured up to passage 6. […].
# A clonogenic cell survival assay determines the ability of a cell to proliferate indefinitely. The effects of phenylcapsaicin on clonogenic survival of bronchial epithelial cells was investigated by plating the cells with increasing numbers (10^2 to 5×10^4) in 25 cm^2 flasks. SU9518, a known inhibitor for PDGF which has shown the ability to reduce radiation-induced fibroblast and endothelial cell activation, was used as the positive control. The cells were incubated with 0-10 μM of phenylcapsaicin and SU9518 separately in the presence of 10 ng/ml PDGF-AB. The flasks were returned to the incubator for 14 days, after which they were stained with crystal violet. The colonies were counted, and the surviving percentage was determined for clonogenic survival after correcting for plating efficiency.
# [4] = test system: human bronchial epithelial cells; test: Proliferation assay, PDGF-stimulated bronchial epithelial proliferation (Example 2); format: cell-based; settings: for IC50: Homo sapiens, Epithelial cell, 10 ng/ml PDGF, 72 hours
# Procedure: as §2
# (§3) Bronchial cells were harvested by trypsinisation at 37° C. and neutralised with trypsin-neutralising solution. A suspension of 50,000 cells in MPM/DMEM was added to 25 ml flasks. The cells were incubated with phenylcapsaicin or SU9518 for 1 hour in cytokine-free medium at standard conditions and incubated for another 72 hours in the presence of final mediums (either with 10 ng/ml PDGF-AB+4 ng/ml FN, or with 2 ng/ml VEGF+4 ng/ml bFGF+4 ng/ml FN). The cells were then dispersed in trypsin, resuspended, and counted in a coulter counter.
# [5] = test system: human bronchial epithelial cells; test: Proliferation assay, VEGF+bFGF-stimulated bronchial epithelial proliferation (Example 2); format: cell-based; settings: 72 hours
# Procedure: as §2, §3
# [6] = test system: human bronchial epithelial cells; test: Clonogenic cell survival assay, bronchial epithelial cells with PDGF-AB (Example 3); format: cell-based; settings: 10 ng/ml PDGF-AB, 14 days
# Procedure: (§4) Primary isolated human bronchial epithelial cells (NHBE) were used in this assay sourced from the American Tissue Culture Collection (Normal, Human (ATCC® BEAS-2B™)) and were cultured up to passage 6. […].
# A clonogenic cell survival assay determines the ability of a cell to proliferate indefinitely. Cells were plated with increasing numbers (102 to 5×10^4) in 25 cm^2 flasks. SU9518, SU9518, a known inhibitor PDGF that has shown the ability to reduce radiation-induced fibroblast and endothelial cell activation, and phenylcapsaicin were used as positive controls. The cells were incubated with 0-10 μM (3% DMSO aqueous) of phenylcapsaicin, SU9518, and compounds 1 and 3-7 separately in the presence of 10 ng/ml PDGF-AB (Sigma Aldrich). The flasks were returned to the incubator for 14 days, after which they were stained with crystal violet (Sigma Aldrich). The colonies were counted and the surviving percentage was determined for clonogenic survival after correcting for plating efficiency.
# [7] = test system: human bronchial epithelial cells; test: Clonogenic cell survival assay, bronchial epithelial cells with PDGF-AB (Example 4); format: cell-based; settings: 10 ng/ml PDGF-AB, 14 days
# Procedure: as §4
# The effects of Phenylcapsaicin (2) on clonogenic survival of bronchial epithelial cells, by plating the cells with increasing numbers (102 to 5×104) in 25 cm^2 flasks were investigated. SU9518* and Phenylcapsaicin were used as positive controls. The cells were incubated with 0-10 μM (3% DMSO aqueous) of Phenylcapsaicin, SU9518, and compounds 8-12 separately in the presence of 10 ng/ml PDGF-AB (Sigma Aldrich). The flasks were returned to the incubator for 14 days, after which they were stained with crystal violet (Sigma Aldrich). The colonies were counted and the surviving percentage was determined for clonogenic survival after correcting for plating efficiency. The synthetic analogs were all calculated at 100% purity for molar concentrations.
# [8] = Acute inhalation toxicity test on rats; settings: both sexes, rat, in vivo, inhaled; single exposure via inhalation, nose-only; male and female rats; based on active substance
# From the text: These findings strongly imply that phenylcapsaicin may be a useful drug against IPF, slowing down or reducing scarring of the lung tissue. Such a reduction in scarring may lead to a delayed progression of IPF and/or ease the symptoms of IPF, such as respiratory difficulty and/or coughing. […] This finding is an indication that the compounds of the invention will have a low toxicity in use against IPF using inhalation as the route of administration.
# [9] = Rage Paulsen et al. 2018; cited from earlier work
smiles,measurement,setting,value
"COc1cc(CNC(=O)CCCCC#Cc2ccccc2)ccc1O [Compound 2, N-(4-hydroxy-3-methoxybenzyl)-7-phenylhept-6-ynamide]",effect on clonogenic survival,[1]; 0-10 μM,dose-dependant inhibitory effect on survival
same,surviving fraction of epithelial cells,[1]; 5 μM,27%
same,IC50,[2],> 10 µM
same,effect on clonogenic survival,"[3]; 0-10 μM, 10 ng/ml PDGF-AB, 14 days",dose-dependent inhibitory effect on survival
same,surviving fraction of epithelial cells,"[3]; 5 μM, 10 ng/ml PDGF-AB, 14 days",35%
same,survival rate of the cells,"[3]; 10 μM, after 14 days, in the presence of PDGF",35%
same,IC50,"[4]; read-out: IC50, PDGF-induced epithelial proliferation",~1000 nM
same,IC50,"[4]; read-out: IC50, PDGF-induced proliferation",~2000 nM
same,selectivity for PDGF pathway,"[4]; PDGF- versus VEGF+bFGF-induced proliferation, bronchial cells","work selectively on the PDGF pathway, although at a lower selectivity than in corneal cells"
same,"IC75, epithelial proliferation stimulated by VEGF and bFGF",[5],~5 µM
same,IC50,"[5]; Homo sapiens, Epithelial cell, highest dose tested 10 uM, read-out: IC50, VEGF+bFGF-induced proliferation",> 10 µM
same,effect on clonogenic survival / PDGF inhibition (words),[6]; 0-10 μM,reduction in the survival fraction of endothelial cells in a dose dependent manner
same,Clonogenic Survival Assay (percent),[6]; 0.10 μM,83%
same,Clonogenic Survival Assay (percent),"[6]; 0.10 μM, listed as phenylcapsaicin",83%
same,Clonogenic Survival Assay (percent),[6]; 0.50 μM,59%
same,Clonogenic Survival Assay (percent),[6]; 1.00 μM,41%
same,Clonogenic Survival Assay (percent),[6]; 2.00 μM,35%
same,Clonogenic Survival Assay (percent),[6]; 5.00 μM,35%
same,Clonogenic Survival Assay (percent),[6]; 10.00 μM,32%
same,Clonogenic Survival Assay (percent),"[6]; 10.00 μM, listed as phenylcapsaicin",32%
same,effect on clonogenic survival / PDGF inhibition (words),[7]; 0-10 μM,reduction in the survival fraction of endothelial cells in a dose dependent manner
same,Clonogenic Survival Assay (percent),[7]; 0.10 uM,83%
same,Clonogenic Survival Assay (percent),[7]; 0.50 uM,59%
same,Clonogenic Survival Assay (percent),[7]; 1.00 uM,41%
same,Clonogenic Survival Assay (percent),[7]; 2.00 uM,35%
same,Clonogenic Survival Assay (percent),[7]; 5.00 uM,35%
same,Clonogenic Survival Assay (percent),[7]; 10.00 uM,32%
same,LC50,[8],> 5.65 µg/mL
same,gene mutations and chromosomal damage,[9],safe with regards to gene mutations and chromosomal damage
same,systemic toxicity,[9],low systemic toxicity

# — US20240277637A1, “CAPSAICIN DERIVATIVES IN THE TREATMENT OF IDIOPATHIC PULMONARY FIBROSIS” (aXichem AB, priority 2021, published 2024)
